From patent US11661418B2, “MASP-2 inhibitors and methods of use” (Omeros Corporation, priority 2019, dated 2023)
pKi: −log10 of the molar value.

Molecular target: MASP-2 (CCP1-CCP2-SP) (Homo sapiens (Human), UniProt O00187)
Assay: Enzymatic Assay for MASP-2 (fluorogenic substrate)
Assay type: biochemical
Conditions: fluorogenic substrate based on C2 cleavage site; room temperature; 20 mM HEPES pH 7.4, 140 mM NaCl, 0.1% Tween 20; 20 min
Protocol: The MASP-2 assay utilizes a fluorogenic substrate, based on the cleavage site for its natural substrate C2. The assay is run at room temperature in an assay buffer containing 20 mM HEPES, pH 7.4, 140 mM NaCl and 0.1% Tween 20. Assay parameters are adjusted such that the assay is linear with respect to time, enzyme, and substrate concentrations. Under these optimized assays conditions, IC50 values are equivalent to Ki values, except in a few cases of “tight binding” inhibitors. Cases of “tight binding” or possible “slow binding” inhibitors are handled by the methods described in Copeland R.A. (2013) Evaluation of Enzyme Inhibitors in Drug Discovery. 2nd Ed., John Wiley and Sons, Inc., Chapters 5-7.
The MASP-2 assay protocol is carried out as follows. Test compounds are serially diluted in DMSO and then 100 nL of each dilution is transferred to the assay plate(s). 10 μL of Assay Buffer is added, followed by 15 μL of Enzyme MASP-2 (CCP1-CCP2-SP) in Assay Buffer. 15 μL of Substrate in Assay Buffer is then added and mixed to start the reactions. After 20 min at room temperature, 15 μL of a stop solution (0.1 M acetic acid) is added, mixed and the plates are read on a SpectraMax i3x Microplate Reader and exported as Excel files. Each assay plate included a “no inhibitor” (DMSO Only) control, a “no enzyme” control and a reference inhibitor control. % Activity values=100*(average test comp. fluorescence−average “no enzyme” fluorescence)/(average “DMSO only” fluorescence−average “no enzyme” fluorescence). IC50 and Ki values are very reproducible, falling well within 2-fold.

Sequence of MASP-2 (CCP1-CCP2-SP) (O00187 445-686): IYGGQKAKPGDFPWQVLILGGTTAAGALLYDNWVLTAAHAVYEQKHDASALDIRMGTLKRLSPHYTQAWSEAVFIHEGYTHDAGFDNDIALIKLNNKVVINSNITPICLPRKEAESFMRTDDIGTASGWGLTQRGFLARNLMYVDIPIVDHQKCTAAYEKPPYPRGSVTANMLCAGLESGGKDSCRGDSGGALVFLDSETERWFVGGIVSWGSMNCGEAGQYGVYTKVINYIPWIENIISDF
Sequence of MASP-2 (CCP1-CCP2-SP) (O00187 287-444 partner): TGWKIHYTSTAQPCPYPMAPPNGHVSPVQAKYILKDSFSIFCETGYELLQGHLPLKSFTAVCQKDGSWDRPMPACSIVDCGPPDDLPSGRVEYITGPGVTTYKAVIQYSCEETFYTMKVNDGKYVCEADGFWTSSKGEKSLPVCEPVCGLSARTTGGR

A pKi of over 6.30 was found for `CC(C)[C@H](N)C(=O)O/N=C(\N)c1ccc(CNC(=O)[C@H](C)NC(=O)[C@H]2C[C@@H](c3ccccc3)CCN2)cc1` [Compound I-7, (2R,4S)—N—((S)-1-((4-((Z)—N′-((L-valyl)oxy)carbamimidoyl)benzyl)amino)-1-oxopropan-2-yl)-4-phenylpiperidine-2-carboxamide] in this work.
A pKi of over 6.30 was found for `C[C@H](NC(=O)[C@H]1C[C@@H](c2ccccc2)CC[N+]1(C)C)C(=O)NCc1ccc(C(=N)N)cc1` [Compound I-10, (2R,4S)-2-(((S)-1-((4-carbamimidoylbenzyl)amino)-1-oxopropan-2-yl)carbamoyl)-1,1-dimethyl-4-phenylpiperidin-1-ium 2,2,2-trifluoroacetate] in this work.
A pKi of over 6.30 was found for `CCOC(=O)CCN1CC[C@H](c2ccccc2)C[C@@H]1C(=O)N[C@@H](C)C(=O)NCc1ccc(C(=N)N)cc1` [Compound I-13, ethyl 3-((2R,4S)-2-(((S)-1-((4-carbamimidoylbenzyl)amino)-1-oxopropan-2-yl)carbamoyl)-4-phenylpiperidin-1-yl)propanoate] in this work.
A pKi of over 6.30 was found for `C[C@H](NC(=O)[C@H]1C[C@@H](c2ccccc2)CCN1CCC(=O)O)C(=O)NCc1ccc(C(=N)N)cc1` [Compound I-14, 3-((2R,4S)-2-(((S)-1-((4-carbamimidoylbenzyl)amino)-1-oxopropan-2-yl)carbamoyl)-4-phenylpiperidin-1-yl)propanoic acid] in this work.
A pKi of over 6.30 was found for `C[C@H](NC(=O)[C@H]1C[C@@H](c2ccccc2)CCN1CCP(=O)(O)O)C(=O)NCc1cc2cnccc2[nH]1` [Compound I-15, (2-((2R,4S)-2-(((S)-1-(((1H-pyrrolo[3,2-c]pyridin-2-yl)methyl)amino)-1-oxopropan-2-yl)carbamoyl)-4-phenylpiperidin-1-yl)ethyl)phosphonic acid] in this work.
A pKi of over 6.30 was found for `Cc1nc(N)ccc1CNC(=O)[C@@H]1CCN1C(=O)[C@H]1C[C@@H](c2ccccc2)CCN1C` [Compound I-16, (S)—N-((6-amino-2-methylpyridin-3-yl)methyl)-1-((2R,4S)-1-methyl-4-phenylpiperidine-2-carbonyl)azetidine-2-carboxamide] in this work.
A pKi of over 6.30 was found for `CN1CC[C@H](c2ccccc2)C[C@@H]1C(=O)N1CC[C@H]1C(=O)NCc1ccc(C(=N)N)cc1` [Compound I-17, (S)—N-(4-carbamimidoylbenzyl)-1-((2R,4S)-1-methyl-4-phenylpiperidine-2-carbonyl)azetidine-2-carboxamide] in this work.
A pKi of 5.60 to 6.30 was found for `N=C(NC(=O)OCc1ccccc1)c1ccc(CNC(=O)[C@@H]2CCN2C(=O)[C@H]2C[C@@H](c3ccccc3)CCN2)cc1` [Compound I-19, benzyl (imino(4-(((S)-1-((2R,4S)-4-phenylpiperidine-2-carbonyl)azetidine-2-carboxamido)methyl)phenyl)methyl)carbamate] in this work.
A pKi of 5.00 to 5.60 was found for `CCN1CC[C@H](c2ccccc2)C[C@@H]1C(=O)N[C@@H](C)C(=O)NCc1ccc(C(=N)NC(=O)OCc2ccccc2)cc1` [Compound I-20, benzyl ((4-(((S)-2-((2R,4S)-1-ethyl-4-phenylpiperidine-2-carboxamido)propanamido)methyl)phenyl)(imino)methyl)carbamate] in this work.
A pKi of over 6.30 was found for `CCN1CC[C@H](c2ccccc2)C[C@@H]1C(=O)N[C@@H](C)C(=O)NCc1ccc(C(=N)N)cc1` [Compound I-21, (2R,4S)—N—((S)-1-((4-carbamimidoylbenzyl)amino)-1-OXOPROPAN-2-yl)-1-ethyl-4-phenylpiperidine-2-carboxamide] in this work.
A pKi of over 6.30 was found for `CCN1CC[C@H](c2cccc(-n3cccn3)c2)C[C@@H]1C(=O)N[C@@H](C)C(=O)NCc1cc(Cl)ccc1-n1cnnn1` [Compound I-22, (2R,4S)-4-(3-(1H-pyrazol-1-yl)phenyl)-N—((S)-1-((5-chloro-2-(1H-tetrazol-1-yl)benzyl)amino)-1-oxopropan-2-yl)-1-ethylpiperidine-2-carboxamide] in this work.
A pKi of over 6.30 was found for `C[C@H](NC(=O)[C@H]1C[C@@H](c2ccccc2)CCN1)C(=O)NCc1ccc(/C(N)=N/O)s1` [Compound I-24, (2R,4S)—N—((S)-1-(((5-((Z)—N-hydroxycarbamimidoyl)thiophen-2-yl)methyl)amino)-1-oxopropan-2-yl)-4-phenylpiperidine-2-carboxamide] in this work.
A pKi of 5.60 to 6.30 was found for `C[C@H](NC(=O)[C@H]1C[C@@H](c2ccccc2)CCN1)C(=O)NCc1ccc(/C(N)=N/O)cc1` [Compound I-31, (2R,4S)—N—((S)-1-((4-((Z)—N′-hydroxycarbamimidoyl)benzyl)amino)-1-oxopropan-2-yl)-4-phenylpiperidine-2-carboxamide] in this work.
